According to paper PMC6107187, “A novel homodimer laccase from Cerrena unicolor BBP6: Purification, characterization, and potential in dye decolorization and denim bleaching” (PLoS ONE, 2018):
Like-named read-outs stand apart in the source and are kept apart here.

Assays:
LacA [1] = assay: oxidation monitored at […] nm, Lineweaver-Burk; format: biochemical, Cerrena unicolor; conditions: optimal pH 5.5 and temperature 80°C; 0.5–10 mM 2,6-DMP; apparent Km
LacA [2] = conditions: optimal pH 2.5 and temperature 60°C; 5–100 μM ABTS; apparent Km
LacA [3] = assay: oxidation monitored at […] nm, Lineweaver-Burk; format: biochemical, Cerrena unicolor; conditions: optimal pH 4.0 and temperature 80°C; 0.5–5 mM guaiacol; apparent Km
[4] = molecular target: Cerrena unicolor BBP6 laccase (LacA) (Cerrena unicolor BBP6); assay: SEC; Superdex 200 Increase 10/300 GL, 10 mM phosphate buffer-140 mM NaCl (pH 7.4), 0.5 mL min^-1, room temperature; native mass compared with the subunit mass from SDS-PAGE

COc1cccc(OC)c1O [2,6-DMP]
Km (LacA [1]): 3430 µM

CCn1c(=NN=c2sc3cc(S(=O)(=O)O)ccc3n2CC)sc2cc(S(=O)(=O)O)ccc21 [ABTS]
Km (LacA [2]): 49.1 µM

COc1ccccc1O [guaiacol]
Km (LacA [3]): 1240 µM

Cerrena unicolor BBP6 laccase (LacA) (enzyme)
stoichiometry N [4]: 2
